SMILES strings stand for the structures. Where only a bound is given, the exact number is not on record here.

One experiment relates to NL-RLuc virus. Description: Inhibition of HIV replication (NL-RLuc luciferase reporter virus in MT-2 cells). Particulars: Human immunodeficiency virus 1, MT2, 120 h, read-out: Activity. It counts as cell-based. The text has this: Inhibition of HIV replication: A recombinant NL-RLuc proviral clone was constructed in which a section of the nef gene from NL4-3 was replaced with the Renilla Luciferase gene. This virus is fully infectious and can undergo multiple cycles of replication in cell culture. In addition, the luciferous reporter provides a simple and easy method for quantitating the extent of virus growth and consequently, the antiviral activity of test compounds. The plasmid pNLRLuc contains the proviral NL-Rluc DNA cloned into pUC18 at the PvuII site. The NL-RLuc virus was prepared by transfection of 293T cells with the plasmid pNLRLuc. Transfections were performed using the LipofectAMINE PLUS kit from Invitrogen (Carlsbad, Calif.) according to the manufacturer and the virus generated was titered in MT-2 cells. For susceptibility analyses, the titrated virus was used to infect MT-2 cells in the presence of compound, and after 5 days of incubation, cells were processed and quantitated for virus growth by the amount of expressed luciferase. Assay media was RPMI 1640 supplemented with 10% heat inactivated fetal bovine serum (FBS), 100 units/ml penicillin G/100 units/ml streptomycin, 10 mM HEPES buffer pH 7.55 and 2 mM L-glutamine. The results from at least 2 experiments were used to calculate the EC50 values. Luciferase was quantitated using the Dual Luciferase kit from Promega (Madison, Wis.). Susceptibility of viruses to compounds was determined by incubation in the presence of serial dilutions of the compound. The 50% effective concentration (EC50) was calculated by using the exponential form of the median effect equation where (Fa)=1/[1+(ED50/drug conc.)^m](Johnson V A, Byington R T. Infectivity Assay. In Techniques in HIV Research. ed. Aldovini A, Walker B D. 71-76. New York: Stockton Press. 1990). Activity equal to A refers to a compound having an EC50≤100 nM, while B and C denote compounds having an EC50 between 100 nM and 1 uM (B) or >1 uM (C).
In the case of `Cc1nc(C)c([C@H](OC(C)(C)C)C(=O)O)c(N2CCC(C)(C)CC2)c1-c1ccc2c(c1)CCN(c1nnnn1-c1ccccc1)C2` [Compound 1], the EC50 was under 0.1 µM. On the same count and under the same terms, for `Cc1nc(C)c([C@H](OC(C)(C)C)C(=O)O)c(N2CCC(C)(C)CC2)c1-c1ccc2c(c1)CCN(c1nc(-c3ccccc3)cs1)C2` [Compound 3] the value was under 0.1 µM; for `Cc1nc(C)c([C@H](OC(C)(C)C)C(=O)O)c(N2CCC(C)(C)CC2)c1-c1ccc2c(c1)CCN(c1nc3c(s1)C(=O)NCC3)C2` [Compound 4], under 0.1 µM; for `Cc1nc(C)c([C@H](OC(C)(C)C)C(=O)O)c(N2CCC(C)(C)CC2)c1-c1ccc2c(c1)CCN(c1nccs1)C2` [Compound 6], under 0.1 µM.

With `Cc1nc(C)c([C@H](OC(C)(C)C)C(=O)O)c(N2CCC(C)(C)CC2)c1-c1ccc2c(c1)CCN(c1nccc(-c3ccccc3)n1)C2` [Compound 8], the EC50 was under 0.1 µM. On the same count and under the same terms, for `Cc1nc(C)c([C@H](OC(C)(C)C)C(=O)O)c(N2CCC(C)(C)CC2)c1-c1ccc2c(c1)CCN(c1nnc(-c3ccccc3)cc1C(N)=O)C2` [Compound 9] the value was under 0.1 µM; for `Cc1nc(C)c([C@H](OC(C)(C)C)C(=O)O)c(N2CCC(C)(C)CC2)c1-c1ccc2c(c1)CCN(c1nccc(N3CCOCC3)n1)C2` [Compound 10], under 0.1 µM.

In the case of `Cc1nc(C)c([C@H](OC(C)(C)C)C(=O)O)c(N2CCC(C)(C)CC2)c1-c1ccc2c(c1)CCN(c1nccc(C(F)(F)F)n1)C2` [Compound 11], the EC50 was under 0.1 µM.

`COc1ccnc(N2CCc3cc(-c4c(C)nc(C)c([C@H](OC(C)(C)C)C(=O)O)c4N4CCC(C)(C)CC4)ccc3C2)n1` [Compound 12]: the EC50 was under 0.1 µM. On the same count and under the same terms, the same measure for `COc1nc(O)nc(N2CCc3cc(-c4c(C)nc(C)c([C@H](OC(C)(C)C)C(=O)O)c4N4CCC(C)(C)CC4)ccc3C2)n1` [Compound 13]: 0.1 to 1 µM. Still for that read-out and setting: the same measure for `COc1cc(N2CCc3cc(-c4c(C)nc(C)c([C@H](OC(C)(C)C)C(=O)O)c4N4CCC(C)(C)CC4)ccc3C2)nc(OC)n1` [Compound 14]: under 0.1 µM; for `Cc1nc(C)c([C@H](OC(C)(C)C)C(=O)O)c(N2CCC(C)(C)CC2)c1-c1ccc2c(c1)CCN(c1ncnc3c1CCCC3)C2` [Compound 15]: under 0.1 µM; for `Cc1nc(C)c([C@H](OC(C)(C)C)C(=O)O)c(N2CCC(C)(C)CC2)c1-c1ccc2c(c1)CCN(c1ncccc1C(=O)O)C2` [Compound 16]: 0.1 to 1 µM. Take `Cc1cnc(N2CCc3cc(-c4c(C)nc(C)c([C@H](OC(C)(C)C)C(=O)O)c4N4CCC(C)(C)CC4)ccc3C2)nc1` [Compound 17]: the EC50 was under 0.1 µM. Still for that read-out and setting: for `Cc1nc(C)c([C@H](OC(C)(C)C)C(=O)O)c(N2CCC(C)(C)CC2)c1-c1ccc2c(c1)CCN(c1ncccn1)C2` [Compound 18] the value was under 0.1 µM; for `Cc1cc(N2CCc3cc(-c4c(C)nc(C)c([C@H](OC(C)(C)C)C(=O)O)c4N4CCC(C)(C)CC4)ccc3C2)ncn1` [Compound 19], under 0.1 µM.

Regarding `Cc1nc(C)c([C@H](OC(C)(C)C)C(=O)O)c(N2CCC(C)(C)CC2)c1-c1ccc2c(c1)CCN(c1ccncn1)C2` [Compound 20], the EC50 was under 0.1 µM. On the same count and under the same terms, for `Cc1nc(C)c([C@H](OC(C)(C)C)C(=O)O)c(N2CCC(C)(C)CC2)c1-c1ccc2c(c1)CCN(c1ncc(F)cn1)C2` [Compound 21] the value was under 0.1 µM; for `Cc1nc(C)c([C@H](OC(C)(C)C)C(=O)O)c(N2CCC(C)(C)CC2)c1-c1ccc2c(c1)CCN(c1ncc(C#N)cn1)C2` [Compound 22], 0.1 to 1 µM; for `Cc1nc(C)c([C@H](OC(C)(C)C)C(=O)O)c(N2CCC(C)(C)CC2)c1-c1ccc2c(c1)CCN(c1ncc(Cl)cn1)C2` [Compound 23], under 0.1 µM. On the same count and under the same terms, for `Cc1ncnc(N2CCc3cc(-c4c(C)nc(C)c([C@H](OC(C)(C)C)C(=O)O)c4N4CCC(C)(C)CC4)ccc3C2)c1F` [Compound 24] the value was under 0.1 µM.

The experiment is the same for the next values; noted with them: Human immunodeficiency virus 1, MT2, 120 h, read-out: EC50 μM.
Turning to `Cc1nc(C)c([C@H](OC(C)(C)C)C(=O)O)c(N2CCC(C)(C)CC2)c1-c1ccc2c(c1)CCN(c1nnnn1-c1ccccc1)C2` [Compound 1], the EC50 stood at 0.006 µM. On the same count and under the same terms, the same measure for `Cc1nc(C)c([C@H](OC(C)(C)C)C(=O)O)c(N2CCC(C)(C)CC2)c1-c1ccc2c(c1)CCN(c1nccs1)C2` [Compound 6]: 0.007 µM; for `COc1nc(O)nc(N2CCc3cc(-c4c(C)nc(C)c([C@H](OC(C)(C)C)C(=O)O)c4N4CCC(C)(C)CC4)ccc3C2)n1` [Compound 13]: 0.278 µM; for `Cc1nc(C)c([C@H](OC(C)(C)C)C(=O)O)c(N2CCC(C)(C)CC2)c1-c1ccc2c(c1)CCN(c1ccncn1)C2` [Compound 20]: 0.002 µM.

(Values after patent US20200325127A1, “PYRIDIN-3-YL ACETIC ACID DERIVATIVES AS INHIBITORS OF HUMAN IMMUNODEFICIENCY VIRUS REPLICATION” (priority 2016, published 2020).)
